Reference: PubChem BioAssay (NCI)
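Grown in 96-well plates, cells were treated for 48 hours with each compound at five concentrations. Insufficient inhibition: endpoint recorded as highest concentration tested. The concentration for 50% growth inhibition is given as GI50. Definition used: TGI = concentration required for complete inhibition of growth.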

Key:
Test in all cases: NCI anticancer screen, dose series, 48 h
A549 NSCLC = tested on: A549 NSCLC
LOX IMVI melanoma = tested on: LOX IMVI melanoma
HCT-116 colon = tested on: HCT-116 colon
HL-60(TB) leukemia = tested on: HL-60(TB) leukemia
KM12 colon = tested on: KM12 colon
HOP-92 NSCLC = tested on: HOP-92 NSCLC
UACC-62 melanoma = tested on: UACC-62 melanoma
SF-295 CNS = tested on: SF-295 CNS
RPMI-8226 leukemia = tested on: RPMI-8226 leukemia
SR leukemia = tested on: SR leukemia

Compound | GI50 (A549 NSCLC) [µM] | TGI (A549 NSCLC) [µM] | GI50 (LOX IMVI melanoma) [µM] | TGI (LOX IMVI melanoma) [µM] | GI50 (HCT-116 colon) [µM] | TGI (HCT-116 colon) [µM] | GI50 (HL-60(TB) leukemia) [µM] | TGI (HL-60(TB) leukemia) [µM] | GI50 (KM12 colon) [µM] | TGI (KM12 colon) [µM] | GI50 (HOP-92 NSCLC) [µM] | TGI (HOP-92 NSCLC) [µM] | GI50 (UACC-62 melanoma) [µM] | TGI (UACC-62 melanoma) [µM] | GI50 (SF-295 CNS) [µM] | TGI (SF-295 CNS) [µM] | GI50 (RPMI-8226 leukemia) [µM] | TGI (RPMI-8226 leukemia) [µM] | GI50 (SR leukemia) [µM] | TGI (SR leukemia) [µM]
COc1ccc(OC)c2c1[nH]c(=O)c1c3ncccc3cn21 | 2.83 | 15.3 | 1.8 | 4.29 | 1.85 | 13.2 | 3.13 | > 100 | 4.23 | > 100 | 0.854 | 6.26 | 4.43 | > 100 | 2.92 | > 100 | 6.78 | > 100 | 3.43 | > 100
C[N+](C)(C)CC(=O)N/N=C(\C(=O)NC1=C(Cl)C(=O)c2ccccc2C1=O)C(C#N)c1csc(-c2ccc([N+](=O)[O-])cc2)n1 (centres undefined) | – | > 100 | – | > 100 | – | > 100 | – | > 100 | – | > 100 | – | > 100 | – | > 100 | – | > 100 | – | > 100 | – | > 100
COc1cc(Nc2nc3ccccc3cc2C(=O)Nc2ccc(F)c(F)c2)cc(OC)c1OC | 3.08 | > 100 | 2.66 | 8.75 | 2.84 | 9.08 | 2.43 | 7.14 | 2.89 | 16 | 1.98 | 5.75 | 1.68 | 4.46 | 2.85 | 10.2 | 2.16 | 6.07 | 2.71 | 9.4
O=c1c2cccc3cccc(c4n1CCN=4)c32 | – | > 100 | – | 80.5 | – | > 100 | – | > 100 | – | > 100 | – | > 100 | – | > 100 | – | > 100 | – | > 100 | – | 81.5
COc1ccc(C(=O)c2cc3c(N)c(C(=O)Nc4ccc(C)cc4)sc3nc2C)cc1 | 3.96 | > 100 | 4.94 | > 100 | 3.19 | 22.2 | 2.78 | 10.3 | 2.44 | > 100 | 2.15 | 21.9 | 12.2 | > 100 | 2.51 | 15 | – | – | 0.525 | > 100
CCc1cc(CCC(=O)Nc2c(C)cccc2C)[nH]n1 | – | > 100 | – | – | – | > 100 | – | > 100 | – | > 100 | – | > 100 | – | > 100 | – | > 100 | – | > 100 | – | > 100
O=c1c(Cl)c(Cl)c(=O)c2sc3cc(Cl)ccc3[nH]c1=2 | – | > 100 | – | – | – | > 100 | – | 23.7 | – | > 100 | – | 33.4 | – | > 100 | – | > 100 | – | 17.2 | – | 21.5
C=C(Nc1ccc([N+](=O)[O-])cc1[N+](=O)[O-])c1c/c(=N\NC(N)=S)c2ccccc2o1 | – | > 100 | – | > 100 | – | > 100 | – | > 100 | – | > 100 | – | > 100 | – | > 100 | – | > 100 | – | – | – | 68.7
CCOC(=N)CC(=O)c1ccccc1 | – | > 100 | – | > 100 | – | > 100 | – | > 100 | – | > 100 | – | > 100 | – | > 100 | – | > 100 | – | – | – | > 100
CCCN(CCCC(NC(C)=O)C(=O)NCc1ccccc1)C(=O)NCCCl (centres undefined) | – | > 100 | – | – | – | > 100 | – | > 100 | – | > 100 | – | > 100 | – | > 100 | – | > 100 | – | > 100 | – | > 100
CCCCCCCCCCCCCCCCCC(=O)OCC(COC(=O)CCCN)OC(=O)CCCN (centres undefined) | – | 16.4 | – | 42.5 | – | 40.1 | – | 77 | – | 33.5 | – | 26.6 | – | 35.3 | – | 35.1 | – | – | – | > 100
CSc1n[n+]2c(s1)SCCC2 | – | 92.3 | – | > 100 | – | > 100 | – | > 100 | – | > 100 | – | > 100 | – | > 100 | – | > 100 | – | – | – | > 100
CC(=O)On1c(-c2ccccc2-c2nc3ccccc3n2OC(C)=O)nc2ccccc21 | – | > 100 | – | > 100 | – | > 100 | – | 72.8 | – | > 100 | – | – | – | > 100 | – | > 100 | – | 71 | – | > 100
Cc1ccc(S(=O)(=O)NNC(=O)c2cc(C)c(C)cc2N)cc1 | – | – | – | > 100 | – | > 100 | – | > 100 | – | > 100 | – | > 100 | – | > 100 | – | > 100 | – | > 100 | – | > 100
